What was measured:
HCC 2998 = test: Growth inhibition of human HCC2998 cells incubated for 48 hrs by sulforhodamine B assay; type: functional, cell-based; settings: HCC 2998, 48 h
PC-3 [1] = test: Growth inhibition of human PC3 cells assessed as cell growth at 0.1 uM incubated for 48 hrs by sulforhodamine B assay relative to control; type: functional; settings: PC-3, 48 h, read-out: Activity
SR [2] = test: Growth inhibition of human SR cells assessed as cell growth at 0.01 uM incubated for 48 hrs by sulforhodamine B assay relative to control; type: functional; settings: read-out: Activity
UACC-257 = test: Growth inhibition of human UACC257 cells assessed as cell growth at 1 uM incubated for 48 hrs by sulforhodamine B assay relative to control; type: functional; settings: UACC-257, 48 h, read-out: Activity
SK-MEL-2 [3] = test: Growth inhibition of human SK-MEL-2 cells assessed as cell growth at 0.1 uM incubated for 48 hrs by sulforhodamine B assay relative to control; type: functional; settings: SK-MEL-2, 48 h, read-out: Activity
U-251 = test: Growth inhibition of human U251 cells assessed as cell growth at 0.1 uM incubated for 48 hrs by sulforhodamine B assay relative to control; type: functional; settings: U-251, 48 h, read-out: Activity
IGROV-1 = test: Growth inhibition of human IGROV1 cells assessed as cell growth at 1 uM incubated for 48 hrs by sulforhodamine B assay relative to control; type: functional; settings: IGROV-1, 48 h, read-out: Activity
UACC-62 = test: Growth inhibition of human UACC62 cells incubated for 48 hrs by sulforhodamine B assay; type: functional, cell-based; settings: UACC-62, 48 h
A549 [4] = test: Growth inhibition of human A549/ATCC cells assessed as cell growth at 0.01 uM incubated for 48 hrs by sulforhodamine B assay relative to control; type: functional; settings: A549, 48 h, read-out: Activity
NCI-H522 = test: Growth inhibition of human NCI-H522 cells assessed as cell growth at 1 uM incubated for 48 hrs by sulforhodamine B assay relative to control; type: functional; settings: NCI-H522, 48 h, read-out: Activity
SR [5] = test: Growth inhibition of human SR cells assessed as cell growth at 1 uM incubated for 48 hrs by sulforhodamine B assay relative to control; type: functional; settings: read-out: Activity
SK-MEL-28 = test: Growth inhibition of human SK-MEL-28 cells assessed as cell growth at 100 uM incubated for 48 hrs by sulforhodamine B assay relative to control; type: functional; settings: SK-MEL-28, 48 h, read-out: Activity
MDA-MB-435 = test: Growth inhibition of human MDA-MB-435 cells assessed as cell growth at 100 uM incubated for 48 hrs by sulforhodamine B assay relative to control; type: functional; settings: MDA-MB-435, 48 h, read-out: Activity
PC-3 [6] = test: Growth inhibition of human PC3 cells assessed as cell growth at 1 uM incubated for 48 hrs by sulforhodamine B assay relative to control; type: functional; settings: PC-3, 48 h, read-out: Activity
SK-MEL-5 [7] = test: Growth inhibition of human SK-MEL-5 cells assessed as cell growth at 0.1 uM incubated for 48 hrs by sulforhodamine B assay relative to control; type: functional; settings: SK-MEL-5, 48 h, read-out: Activity
MDA-MB-468 = test: Growth inhibition of human MDA-MB-468 cells assessed as cell growth at 0.1 uM incubated for 48 hrs by sulforhodamine B assay relative to control; type: functional; settings: MDA-MB-468, 48 h, read-out: Activity
SK-MEL-5 [8] = test: Growth inhibition of human SK-MEL-5 cells assessed as cell growth at 0.01 uM incubated for 48 hrs by sulforhodamine B assay relative to control; type: functional; settings: SK-MEL-5, 48 h, read-out: Activity
HT-29 = test: Growth inhibition of human HT-29 cells assessed as cell growth at 0.01 uM incubated for 48 hrs by sulforhodamine B assay relative to control; type: functional; settings: HT-29, 48 h, read-out: Activity
NCI-H23 = test: Growth inhibition of human NCI-H23 cells incubated for 48 hrs by sulforhodamine B assay; type: functional, cell-based; settings: NCI-H23, 48 h
786-0 = test: Growth inhibition of human 786-0 cells assessed as cell growth at 100 uM incubated for 48 hrs by sulforhodamine B assay relative to control; type: functional; settings: 786-0, 48 h, read-out: Activity
HOP-62 = test: Growth inhibition of human HOP62 cells assessed as cell growth at 100 uM incubated for 48 hrs by sulforhodamine B assay relative to control; type: functional; settings: HOP-62, 48 h, read-out: Activity
SN12C = test: Growth inhibition of human SN12C cells assessed as cell growth at 0.01 uM incubated for 48 hrs by sulforhodamine B assay relative to control; type: functional; settings: read-out: Activity
LOX IMVI = test: Growth inhibition of human LOXIMVI cells assessed as cell growth at 0.01 uM incubated for 48 hrs by sulforhodamine B assay relative to control; type: functional; settings: read-out: Activity
SK-MEL-2 [9] = test: Growth inhibition of human SK-MEL-2 cells assessed as cell growth at 100 uM incubated for 48 hrs by sulforhodamine B assay relative to control; type: functional; settings: SK-MEL-2, 48 h, read-out: Activity
NCI-H322M = test: Growth inhibition of human NCI-H322M cells assessed as cell growth at 1 uM incubated for 48 hrs by sulforhodamine B assay relative to control; type: functional; settings: read-out: Activity
BT-549 = test: Growth inhibition of human BT549 cells incubated for 48 hrs by sulforhodamine B assay; type: functional, cell-based; settings: BT-549, 48 h
A549 [10] = test: Growth inhibition of human A549/ATCC cells assessed as cell growth at 1 uM incubated for 48 hrs by sulforhodamine B assay relative to control; type: functional; settings: A549, 48 h, read-out: Activity
PC-3 [11] = test: Growth inhibition of human PC3 cells assessed as cell growth at 0.01 uM incubated for 48 hrs by sulforhodamine B assay relative to control; type: functional; settings: PC-3, 48 h, read-out: Activity
OVCAR-5 = test: Growth inhibition of human OVCAR5 cells incubated for 48 hrs by sulforhodamine B assay; type: functional, cell-based; settings: OVCAR-5, 48 h
[12] = read-out: LC50 (the source's name)
[13] = read-out: pLC50 (the source's name) (converted)

O=C(Nc1cccc(-n2cc(-c3ccncc3)c(-c3cc(O)cc(Cl)c3)n2)c1)c1cc(C(F)(F)F)cc(C(F)(F)F)c1
GI50 (HCC 2998; read-out: GI50): 3.12 µM
CC50 (HCC 2998; [12]): > 100 µM
TGI (HCC 2998; read-out: TGI): 11.6 µM
GI50 (HCC 2998; read-out: pGI50 (converted)): 3.09 µM
CC50 (HCC 2998; [13]): > 100 µM
TGI (HCC 2998; read-out: pTGI (converted)): 11.7 µM
growth at 0.1 µM (PC-3 [1]): 93%
growth at 0.01 µM (SR [2]): 94%
growth at 1 µM (UACC-257): 92%
growth at 0.1 µM (SK-MEL-2 [3]): 93%
growth at 0.1 µM (U-251): 93%
growth at 1 µM (IGROV-1): 103%
IC50 (UACC-62): 3.79 µM
GI50 (UACC-62; read-out: GI50): 3.79 µM
CC50 (UACC-62; [12]): > 100 µM
TGI (UACC-62; read-out: TGI): 22.4 µM
GI50 (UACC-62; read-out: pGI50 (converted)): 3.8 µM
CC50 (UACC-62; [13]): > 100 µM
TGI (UACC-62; read-out: pTGI (converted)): 28.2 µM
growth at 0.01 µM (A549 [4]): 95%
growth at 1 µM (NCI-H522): 54%
growth at 1 µM (SR [5]): 71%
growth at 100 µM (SK-MEL-28): -2%
growth at 100 µM (MDA-MB-435): 3%
growth at 1 µM (PC-3 [6]): 78%
growth at 0.1 µM (SK-MEL-5 [7]): 95%
growth at 0.1 µM (MDA-MB-468): 95%
growth at 0.01 µM (SK-MEL-5 [8]): 97%
growth at 0.01 µM (HT-29): 96%
GI50 (NCI-H23; read-out: GI50): 4.18 µM
LC50 (NCI-H23; read-out: LC50): > 100 µM
TGI (NCI-H23; read-out: TGI): 45.5 µM
GI50 (NCI-H23; read-out: pGI50 (converted)): 4.17 µM
LC50 (NCI-H23; read-out: pLC50 (converted)): > 100 µM
TGI (NCI-H23; read-out: pTGI (converted)): 46.8 µM
growth at 100 µM (786-0): -28%
growth at 100 µM (HOP-62): 14%
growth at 0.01 µM (SN12C): 97%
growth at 0.01 µM (LOX IMVI): 101%
growth at 100 µM (SK-MEL-2 [9]): -43%
growth at 1 µM (NCI-H322M): 90%
GI50 (BT-549; read-out: GI50): 4.58 µM
CC50 (BT-549; [12]): > 100 µM
TGI (BT-549; read-out: TGI): 48.8 µM
GI50 (BT-549; read-out: pGI50 (converted)): 4.68 µM
CC50 (BT-549; [13]): > 100 µM
TGI (BT-549; read-out: pTGI (converted)): 46.8 µM
growth at 1 µM (A549 [10]): 74%
growth at 0.01 µM (PC-3 [11]): 95%
GI50 (OVCAR-5; read-out: GI50): 8.23 µM
CC50 (OVCAR-5; [12]): > 100 µM
TGI (OVCAR-5; read-out: TGI): 38.4 µM
GI50 (OVCAR-5; read-out: pGI50 (converted)): 8.32 µM
CC50 (OVCAR-5; [13]): > 100 µM
TGI (OVCAR-5; read-out: pTGI (converted)): 38 µM

From ChEMBL document CHEMBL4308841, “Synthesis, in vitro antiproliferative activity, and kinase inhibitory effects of pyrazole-containing diarylureas and diarylamides” (Eur J Med Chem, 2018)
